Reference: patent US12447167B2, “GM-CSF-producing t-cell control agent and Th1/Th2 immune balance regulator” (National Center of Neurology and Psychiatry, priority 2014, dated 2025)

Test system: GM-CSF-producing CD8-positive T-cells
Experiment: GM-CSF-producing CD8-positive T-cells in PBMCs of normal subjects after single oral dose (FACS)
Type: in vivo, human
Method: A single dose of compound 31, which is a synthetic glycolipid of the present invention, described in the first aspect, i.e., (2S,3S,4R)-1-O-(α-D-galactosyl)-2-(N-tetracosanoylamino)-1,3,4-nonanetriol represented by the following formula (III), was orally administered to each of subjects of 4 cohorts (A, B, C, and D cohorts) each consisting of 3 normal subjects shown in Table 1 above after obtainment of informed consent.
The dose was set to 0.3 mg per person for A cohort, 1 mg per person for B cohort, 3 mg per person for C cohort, and 10 mg per person for D cohort.
Subsequently, T-cell subfractions were prepared from the peripheral blood of each subject by using the density gradient centrifugation method. First, a total of 20 mL of blood was collected from the vein of each subject 24 hours (1st day), 48 hours (2nd day), 72 hours (3rd day), and 168 hours (7th day) after the administration of compound 31 by using two 10-mL heparin sodium-containing vacuum blood collection tubes. For a control, 20 mL of blood was similarly collected from the vein of each subject one day before the administration of compound 31.
Next, 4 mL of Ficoll-Paque Plus (GE Healthcare Biosciences Corp.) was placed in each of four 15-mL conical tubes, and 10 mL of blood diluted twice with phosphate buffered saline (PBS) was gently layered thereon. Then, density gradient centrifugation was performed by centrifugation at 1800 rpm at ordinary temperature for 30 minutes. After the centrifugation, a supernatant containing plasma and platelet was discarded, and lymphocytes present at the boundary layer between the supernatant layer and the Ficoll-Paque Plus layer were recovered into a fresh 50-mL conical tube. The 50-mL conical tube was filled by adding PBS thereto, followed by centrifugation at 1800 rpm at ordinary temperature for 5 minutes. […] After a supernatant was removed by suction again, a single cell suspension was prepared by adding 1 mL of AIM-V medium (Life Technologies Corp.), and then, the number of cells was measured with a counting chamber. […]

## CCCCCCCCCCCCCCCCCCCCCCCC(=O)NC(COC1OC(CO)C(O)C(O)C1O)[C@H](O)C(O)CCCCC (stereo in doubt) [compound 31, (2S,3S,4R)-1-O-(α-D-galactosyl)-2-(N-tetracosanoylamino)-1,3,4-nonanetriol]
A cohort (0.3 mg), 7 days after administration
  suppressive effects on CD8-positive T-cells: strengthened
C cohort (3 mg), 1 day after administration
  growth of CD8-positive T-cells: transiently promoted
Single oral dose, all cohorts, after administration vs day-1
  proportion of CD8-positive T-cells (GM-CSF-producing) in PBMCs: decreased
